Holding throughout (test): NCI anticancer screen, dose series, 48 h
Assay [1] has as its system COLO 205 colon.
Assay [2] deals with CCRF-CEM leukemia.
Assay [3] deals with K-562 leukemia.
In assay [4] the test system is SK-MEL-28 melanoma.
The test system of assay [5] is IGROV1 ovarian.
Assay [6] concerns NCI-H522 lung.
In assay [7] the test system is MOLT-4 leukemia.
The test system of assay [8] is TK-10 renal.
The subject of assay [9] is HT29 colon.
Assay [10] has as its system EKVX NSCLC.

Several values for one entry are separate records, joined by “and”; a condition that tells them apart may be missing. Equal values may be shown once.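 Test compounds were applied to cells in 96-well plates for 48 hours at 5 doses. GI50 = concentration required for 50% inhibition of growth. TGI: concentration producing complete growth inhibition.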 A value given as a limit tells only on which side of the number the result lay.

Take `CCC[CH2][Sn]1([CH2]CCC)[O]CC(CN2CCCC2)[O]1` (stereo not given): the GI50 in assay [1] is 18.3 µM; in assay [2], 3.33 µM; in assay [3] it was 4.24 µM; in [4], 19 µM; in assay [5], 21.1 µM; in [6] it was 3.32 µM. Further, the GI50 was 14.3 µM in assay [7], 12 µM in assay [8], 11.1 µM in assay [9] and 12.9 µM in [10]. Further, the TGI in assay [1] was found to be 34.3 µM; in [2] it was 21.3 µM; in assay [3] it was 21.4 µM; in assay [4] it was 34.9 µM; in [5] it was 37.1 µM; in assay [6], 11.1 µM. Also, the TGI in assay [7] turned out to be 50.4 µM; in assay [8], 24.3 µM; in [9], 30.7 µM; in [10], 33.2 µM.

As to `COc1cc2c3c(n(CCCNC(=O)OCC4c5ccccc5-c5ccccc54)c(=O)c2cc1OC)-c1cc2c(cc1/C3=C\CCNC(=O)OCC1c3ccccc3-c3ccccc31)OCO2`, the GI50 in assay [1] was > 28 µM; in [2], 1.42 µM; in assay [3], 9.17 µM; in assay [4], > 50 µM; in assay [5], 0.915 µM; in assay [6], > 11 µM. Also, the GI50 is 5.45 µM in assay [7], > 31.7 µM in assay [8], 21.5 µM in [9] and > 50 µM in [10]. The TGI in assay [1] is > 50 µM; in assay [2], > 50 µM; in assay [3] it was > 35.8 µM; in [4] it was > 50 µM; in assay [5], 4.93 µM; in assay [6], > 23.6 µM. Moreover, the TGI in assay [7], in [8], in assay [9] and in [10] was > 50 µM in each case.

As for `CC1(C)SCc2nc3ncccc3n21`, the TGI in assay [1], in assay [2], in [3], in [4], in [5] and in assay [6] was > 100 µM throughout. The TGI in assay [7], in assay [8], in [9] and in assay [10] was > 100 µM each time.

On to `Cc1cccc(NC(=O)C(=O)C(C(=O)c2ccc3ccccc3c2)C2OC(=O)c3ccccc32)c1C` (stereo not given), for which the TGI was 24.7 µM in assay [1]; 68.8 µM in assay [2]; > 100 µM in assay [3]; 39 µM in [4]; 57.7 µM in [5]; 43.5 µM in assay [6]. The TGI in [7] was found to be 32.2 µM; in assay [8], 50.9 µM; in [9] it was 64.4 µM; in assay [10], 77.8 µM.

As for `COc1cc2c(cc1OC)C(CC(=O)NN=C(C)C)NCC2` (stereo not given), the TGI in [1], in assay [2], in assay [3], in [4], in [5] and in [6] was > 100 µM in each case. For the same compound, the TGI in assay [7], in assay [8], in [9] and in [10] was > 100 µM each time.

For the compound `NS(=O)(=O)c1ccc(NC2(C(=O)O)CCCC2)cc1`, the TGI in [1], in assay [2], in assay [3], in assay [4], in [5] and in assay [6] was > 100 µM in each case. Besides, the TGI in [7], in assay [8], in assay [9] and in assay [10] was > 100 µM throughout.

As for `CCCN1CCC(=O)N(CCC(F)(F)C(F)(F)C(F)(F)C(F)(F)C(F)(F)C(F)(F)F)C1=S`, the TGI in assay [1], in assay [2], in assay [3], in assay [4], in assay [5] and in assay [6] was > 100 µM each time. For the same compound, the TGI in [7], in assay [8], in assay [9] and in assay [10] was > 100 µM throughout.

Turning to `C1=CC2SSSC2C1` (stereo not given), the TGI in assay [1], in assay [2], in assay [3], in assay [4], in assay [5] and in assay [6] was > 100 µM throughout. Moreover, the TGI in assay [7], in assay [8], in assay [9] and in assay [10] was > 100 µM each time.

`C=C1C(=O)O[C@@H]2/C=C(\C)CC/C=C(/COC(C)=O)C[C@@H](OC(C)=O)[C@@H]12`: the TGI is 14.1 µM in assay [1]; 14.3 µM in assay [2]; > 33.8 µM in [3]; 23.5 µM in [4]; 28.1 µM in assay [5]; 3.2 µM in assay [6]. For the same compound, the TGI in assay [7] was 16.9 µM; in [8] it was 23.2 µM; in [9], > 40.9 µM; in [10], 25.8 µM.

For `COc1cccc2c1C(=O)c1c(O)c3c(c(O)c1C2=O)C[C@@](O)(C(C)=O)C[C@@H]3OC1OC(C)C(O)C(N)C1Br` (stereo not given in full), the GI50 in assay [1] was 0.219 µM; in assay [3], 0.0203 µM; in [4], 0.22 µM; in assay [6] it was 0.0563 µM; in [10], 0.195 µM. The TGI in assay [1] is 2.99 µM and 1.23 µM; in [2], 0.07 µM and 0.108 µM; in assay [3] it was 1.64 µM and 1.03 µM; in assay [4] it was 1.28 µM and 1.32 µM; in [5] it was 1.41 µM and 9.05 µM; in [6] it was 0.449 µM and 0.324 µM. For the same compound, the TGI in [7] was 0.0266 µM; in [8], 0.407 µM; in assay [9], 0.573 µM; in assay [10], 5.04 µM and 1.98 µM.

On to `CN1C/C=C\CCOc2cccc(c2)-c2ccnc(n2)Nc2cccc(c2)C1`, for which the GI50 is 0.024 µM in assay [1]; 0.0349 µM in [2]; 0.0931 µM in assay [3]; 0.0641 µM in assay [4]; 0.0487 µM in assay [5]; 0.0708 µM in assay [6]. The GI50 was 0.0371 µM in assay [7], 0.0762 µM in assay [8], 0.0497 µM in assay [9] and 0.0872 µM in [10]. Also, the TGI in assay [1] stood at 0.0762 µM; in [2], 1.04 µM; in [3], 6.21 µM; in assay [4] it was 0.451 µM; in assay [5], 1.31 µM; in assay [6], 0.334 µM. Besides, the TGI in assay [7] came out at 0.874 µM; in [8], 0.88 µM; in assay [9] it was 0.976 µM; in assay [10], 0.961 µM.
